# According to patent EP0015817A1, “Piperidine derivatives, process for their preparation and their use in therapeutical compositions” (METABIO-JOULLIE Société anonyme:, priority 1979, dated 1980):
# Read-outs that look alike come from different tables or passages of the source.
# Legend:
# [1] = Acute toxicity (LD50) in mice; details: mouse, in vivo, souris Swiss NMRI, read-out: DL50 (the source's name)
# Method: La DL50 a été déterminée chez la souris Swiss NMRI sur le bromhydrate de la benzyloxy-4 pipéridine : - voie orale DL50 75 mg/kg - voie I.V. DL50 32,5 mg/kg
# [2] = tested on: duodénum isolé de rat; experiment: Antispasmodic action: antagonism of barium chloride-induced contraction on isolated rat duodenum (Magnus method); details: for IC50: read-out: Concentrations molaires inhibitrices 50 %
# Method: Les essais sont effectués sur le duodénum isolé de rat en survie dans du liquide de Tyrode oxygéné et à température de 37°C (cuve de 20 ml, bain- marie à organes isolés type Valette).
# Le tonus et les mouvements de l'organe isolé sont enregistrés par la méthode de Magnus (R.) (Arch. Ges. Physiol. 1904, 102; 123) à l'aide d'une jauge de contrainte reliée à un enregistreur électronique Electromed.
# L'antagonisme exercé par le produit étudié est recherché vis-à-vis des effets contracturants musculotropes du chlorure de baryum.
# La papavérine est utilisée comme substance antagoniste de référence.
# On détermine la concentration molaire du produit qui diminue de 50 % les effets du chlorure de baryum.
compound,measurement,setting,value
"c1ccc(COC2CCNCC2)cc1 [Benzyloxy-4 pipéridine (bromhydrate), Bromhydrate de benzyloxy-4 pipéridine]",LD50,"[1]; iv, voie I.V.",32.5 mg/kg
same,LD50,"[1]; po, voie orale",75 mg/kg
same,IC50,"[2]; concentration reducing by 50 % the effects of chlorure de baryum, isolated rat duodenum in oxygenated Tyrode, 37°C",18 µM
same,activité antispasmodique comparée à celle de la papavérine,"[2]; qualitative comparison with papavérine, chlorure de baryum contraction, isolated rat duodenum",sensiblement égale à celle de la papavérine
"COc1ccc(Cc2nccc3cc(OC)c(OC)cc23)cc1OC [Papavérine, reference compound]",IC50,[2]; Rattus norvegicus,12.5 µM
